According to paper PMC5908295 (Oncotarget, 2018):

Experiments:
MV-4-11 xenograft = experiment: MV-4-11 xenograft, SEL24-B489 and AraC alone or combined; assay type: in vivo, mice; details: MV-4-11, AraC alone 50 mg/kg three times weekly IP
Source text: All animals were handled in strict accordance with good animal practice as defined by the relevant national and local animal welfare bodies. SCID and SCID/beige C.B-17 mice were provided by Harlan Laboratories or Charles River Laboratories, and were maintained in pathogen free conditions. For the xenograft experiments, age-matched (9-11 weeks old) females were used. 5×10^6 of MV-4-11 or MOLM-16 cells were suspended in a mixture (1:1, v:v) of PBS with Matrigel (BD Biosciences,) and injected subcutaneously (sc), in a total volume of 100 μL, above the groin on the right hind limb. For MOLM-13 and KG-1 cells, a mixture (3:1, v:v) of PBS and Matrigel HC (BD Bioscience,) was used to inject 5 × 10^6 of cell per mouse subcutaneously (sc), in a total volume of 100 μL. When tumors reached 100-130 mm^3, mice were randomized into uniform groups (6-9 mice per group) and subsequently administered the compound. […] At the end of the experiment, mice were anesthetized with isofluran and blood samples for total cell counts and biochemistry were obtained by retro-orbital bleeding. […] 5×10^6 cells suspended in a mixture (3:1, v:v) of PBS and Matrigel were injected as described above. […] Tumor volume was monitored every second day and calculated using the formula: TV = (a^2×b)/2, where “a” is the short axis in millimeters, and “b” is the long axis in millimeters. Body weight was assessed every day.

[1] = Blood biochemistry in mice with MV-4-11 tumors; assay type: in vivo; details: Cytarabine 50 mg/kg, treatment day 15
Source text: All animals were handled in strict accordance with good animal practice as defined by the relevant national and local animal welfare bodies. SCID and SCID/beige C.B-17 mice were provided by Harlan Laboratories or Charles River Laboratories, and were maintained in pathogen free conditions. For the xenograft experiments, age-matched (9-11 weeks old) females were used. 5×10^6 of MV-4-11 or MOLM-16 cells were suspended in a mixture (1:1, v:v) of PBS with Matrigel (BD Biosciences,) and injected subcutaneously (sc), in a total volume of 100 μL, above the groin on the right hind limb. For MOLM-13 and KG-1 cells, a mixture (3:1, v:v) of PBS and Matrigel HC (BD Bioscience,) was used to inject 5 × 10^6 of cell per mouse subcutaneously (sc), in a total volume of 100 μL. When tumors reached 100-130 mm^3, mice were randomized into uniform groups (6-9 mice per group) and subsequently administered the compound. […] At the end of the experiment, mice were anesthetized with isofluran and blood samples for total cell counts and biochemistry were obtained by retro-orbital bleeding. […] 5×10^6 cells suspended in a mixture (3:1, v:v) of PBS and Matrigel were injected as described above. When the tumor volume reached ~120 mm^3, mice were randomized into uniform groups (5 mice per group) and the compound then administered. […] Tumor volume was monitored every second day and calculated using the formula: TV = (a^2×b)/2, where “a” is the short axis in millimeters, and “b” is the long axis in millimeters. Body weight was assessed every day.
Supplementary Table 9: Related to Figure 5C. […] The assessment of
was performed on treatment day 15.
AST – Aspartate aminotransferase, ALT – Alanine transaminase, ALP – alkaline phosphatase, UREA – blood urea nitrogen,
CREA – Creatinine, CK – Creatine kinase, TP- total protein; ALB – Albumin. […]

[2] = Total blood cell counts in mice with MV-4-11 tumors; details: Cytarabine 50 mg/kg, treatment day 15
Source text: All animals were handled in strict accordance with good animal practice as defined by the relevant national and local animal welfare bodies. SCID and SCID/beige C.B-17 mice were provided by Harlan Laboratories or Charles River Laboratories, and were maintained in pathogen free conditions. For the xenograft experiments, age-matched (9-11 weeks old) females were used. 5×10^6 of MV-4-11 or MOLM-16 cells were suspended in a mixture (1:1, v:v) of PBS with Matrigel (BD Biosciences,) and injected subcutaneously (sc), in a total volume of 100 μL, above the groin on the right hind limb. For MOLM-13 and KG-1 cells, a mixture (3:1, v:v) of PBS and Matrigel HC (BD Bioscience,) was used to inject 5 × 10^6 of cell per mouse subcutaneously (sc), in a total volume of 100 μL. When tumors reached 100-130 mm^3, mice were randomized into uniform groups (6-9 mice per group) and subsequently administered the compound. […] At the end of the experiment, mice were anesthetized with isofluran and blood samples for total cell counts and biochemistry were obtained by retro-orbital bleeding. […] 5×10^6 cells suspended in a mixture (3:1, v:v) of PBS and Matrigel were injected as described above. When the tumor volume reached ~120 mm^3, mice were randomized into uniform groups (5 mice per group) and the compound then administered. […] Tumor volume was monitored every second day and calculated using the formula: TV = (a^2×b)/2, where “a” is the short axis in millimeters, and “b” is the long axis in millimeters. Body weight was assessed every day. […]
Supplementary Table 10: Related to Figure 5C. […] The assessment total
performed on treatment day 15.
RBC – red blood cells, HGB – hemoglobin, HCT – hematocrit, WBC – white blood cells, LYMPH – lymphocytes, MONO
– monocytes, GRA – granulocytes, PLT – platelet, MPV – mean platelet volume.

MV-4-11 = experiment: MTS viability assay, 72 h; details: Homo sapiens, MV4-11, 72 h
Experimental: (§1) On the same day, 50 μL of medium containing tested inhibitor was added to the wells. Each compound was tested at 8 concentrations, in triplicates. As a negative control, the medium containing 0.1% DMSO was used. […] Staurosporine was used at 10 μM as a positive control. One the day of drug addition, basal signal from untreated cells was measured from in triplicate to determine time zero (T0). […] GI50 and LC50 values were extrapolated from a variable (four-parameter) dose-response curve fitted in GraphPad Prism.

MOLM-13 = experiment: MTS viability assay, 72 h; details: Homo sapiens, MOLM-13, 72 h
Experimental: (§2) 15-25 ×10^3 of MV-4-11, MOLM-13, MOLM-14, MOLM-16, KG-1, Eol-1, SKM-1, PL-21, GDM-1, SKNO-1, RS4;11, Kasumi-3 and Kasumi-6 cells were seeded in 150 μL of culture medium onto individual wells in a 96 well plates, in triplicates. On the same day, 50 μL of medium containing tested inhibitor was added to the wells. Each compound was tested at 8 concentrations, in triplicates. As a negative control, the medium containing 0.1% DMSO was used. […] Staurosporine was used at 10 μM as a positive control. One the day of drug addition, basal signal from untreated cells was measured from in triplicate to determine time zero (T0). […] GI50 and LC50 values were extrapolated from a variable (four-parameter) dose-response curve fitted in GraphPad Prism.

MOLM-14 = experiment: MTS viability assay, 72 h; details: Homo sapiens, MOLM-14, 72 h
Experimental: as §2

MOLM-16 = experiment: MTS viability assay, 72 h; details: MOLM16, 72 h
Experimental: as §1

KG-1 = experiment: MTS viability assay, 72 h; details: Homo sapiens, KG-1, 72 h
Experimental: as §2

EOL-1 = experiment: MTS viability assay, 72 h; details: Homo sapiens, EOL1, 72 h
Experimental: as §2

KASUMI-3 = experiment: MTS viability assay, 72 h; details: Kasumi-3, 72 h
Experimental: as §2

KASUMI-6 = experiment: MTS viability assay, 72 h; details: 72 h
Experimental: as §2

OCI-AML-2 = experiment: MTS viability assay, 72 h; details: Homo sapiens, OCI-AML2, 72 h
Experimental: as §1

OCI-AML-3 = experiment: MTS viability assay, 72 h; details: Homo sapiens, OCI-AML-3, 72 h
Experimental: as §2

MOLM-6 = experiment: MTS viability assay, 72 h; details: 72 h
Experimental: as §2

RS4;11 = experiment: MTS viability assay, 72 h; details: Homo sapiens, RS4-11, 72 h
Experimental: as §2

SKNO-1 = experiment: MTS viability assay, 72 h; details: SKNO-1, 72 h
Experimental: as §2

SKM-1 = experiment: MTS viability assay, 72 h; details: Homo sapiens, SKM-1, 72 h
Experimental: as §1

SIG-M5 = experiment: MTS viability assay, 72 h; details: Homo sapiens, SIG-M5, 72 h
Experimental: as §1

GDM-1 = experiment: MTS viability assay, 72 h; details: Homo sapiens, GDM-1, 72 h
Experimental: as §2

PL-21 = experiment: MTS viability assay, 72 h; details: PL-21, 72 h
Experimental: as §2

[3] = set-up: method as in PMID 21628411, PMID 24953177; details: off-target inhibition of the potassium channel hERG; cited from earlier work

## Nc1ccn([C@@H]2O[C@H](CO)[C@@H](O)[C@@H]2O)c(=O)n1 [Cytarabine]
MV-4-11 xenograft
  decrease of tumor growth: 66%
[1]
  ALB: 4.6 g/dL
  ALP: 87.6 U/L
  ALT: 153.7 U/L
  AST: 247.1 U/L
  CK: 1709 U/L
  CREA: 0.37 mg/dL
  K: 5.4 mM
  TP: 4.6 g/dL
  UREA: 5.9 mmol/L
[2]
  GRA: 51.9%
  HCT: 49.5%
  HGB: 14.4 g/dL
  LYMPH: 37.7%
  MONO: 10.3%
  MPV: 5.9 μm3
  PLT: 1098 103/mm3
  RBC: 9.9 106/mm3
  WBC: 5.0 103/mm3
MV-4-11
  GI50: 340 nM
MV-4-11; read-out: LC50
  CC50: > 10000 nM
MOLM-13
  GI50: < 5 nM
MOLM-13; read-out: LC50
  CC50: > 10000 nM
MOLM-14
  GI50: 48 nM
MOLM-14; read-out: LC50
  CC50: > 10000 nM
MOLM-16
  GI50: 22 nM
MOLM-16; read-out: LC50
  CC50: > 10000 nM
KG-1
  GI50: 12 nM
KG-1; read-out: LC50
  CC50: 71 nM
EOL-1
  GI50: 24 nM
KASUMI-3
  GI50: < 5 nM
KASUMI-3; read-out: LC50
  CC50: 28 nM
KASUMI-6
  GI50: < 5 nM
OCI-AML-2
  GI50: < 5 nM
OCI-AML-2; read-out: LC50
  CC50: 21 nM
OCI-AML-3
  GI50: 81 nM
OCI-AML-3; read-out: LC50
  CC50: > 10000 nM
MOLM-6
  GI50: 30 nM
MOLM-6; read-out: LC50
  CC50: > 10000 nM
RS4;11
  GI50: < 5 nM
RS4;11; read-out: LC50
  CC50: 23 nM
SKNO-1
  GI50: < 5 nM
SKM-1
  GI50: 28 nM
SKM-1; read-out: LC50
  CC50: 6460 nM
SIG-M5
  GI50: 46 nM
SIG-M5; read-out: LC50
  CC50: > 10000 nM
GDM-1
  GI50: < 5 nM
PL-21
  GI50: < 5 nM

## CN1CCC(CNc2ccc3ncc(-c4cccc(OC(F)(F)F)c4)n3n2)CC1 [SGI-1776]
[3]
  outcome of clinical testing: failed clinical testing due to a narrow therapeutic window and cardiac toxicity
